Assay results as given in patent publication US11401271B2, “Fused heterocyclic compound, pyrazole-ring-containing fused heterocyclic compound, agricultural composition containing thereof, and method of using the composition” (SOUTH CHINA AGRICULTURAL UNIVERSITY, priority 2017, dated 2022).
Where two headings read alike, the source gives them in different places.

What was measured:
Assay type in all cases: in vivo
[1] = tested on: Plutella xylostella; assay: whole plant or invertebrate; settings: for mortality at 500 ppm: Plutella xylostella, read-out: Plutella xylostella Mortality (%) 500 ppm
How it was run: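 Leaf immersion feeding test: 2nd-instar larvae (about 35 per vessel, 3 replicates) kept at 28° C. on 1.0 cm cabbage discs soaked 5 s in a 500 ppm solution with 0.05% Tween-80. Mortality after 24 h of exposure, calculated relative to live larvae in the Tween-80 control.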

[2] = tested on: Aphis craccivora; assay: whole plant or invertebrate; settings: for mortality at 500 ppm: Aphis craccivora, read-out: Aphis craccivora Mortality (%) 500 ppm; for Aphis craccivora Mortality (%): immersion 5 seconds, counted after 24 hours
How it was run: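 Mortality scored 24 h after treatment as the reduction in live aphids versus a 0.05% Tween-80 control; three replicates, 23° C. Treatment was a 5 s immersion of wingless adults on bean sprouts in 500 ppm test solution containing 0.05% Tween-80, followed by air-drying.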

[3] = tested on: Bombyx mori L.; assay: Toxicity test on 2nd-instar larvae of Bombyx mori L., leaf immersion feeding method; settings: 1000 ppm, 24 hours
Description: (1) Toxicity Test on 2nd-Instar Larvae of Bombyx mori L.
Bombyx mori L. is an important economic insect sensitive to pesticides in an agricultural ecosystem, and is also one of the non-target organisms of environmental ecology listed in pesticide registration of China. The 2nd-instar larvae of Bombyx mori L. were used as test objects and tested by using a leaf immersion feeding method.
Operation process: Samples were weighed accurately, and respectively added with 200 μL of dimethyl sulfoxide to prepare 10 g/L mother liquor which was diluted into a concentration of 1000 ppm with an aqueous solution containing 0.05% of Tween-80 during the test. Young cotyledons of mulberries were collected, washed and air-dried, immersed in a liquid medicine, taken out after 5 seconds, naturally air-dryed, and then transferred into a clean vessel. About 35 2nd -instar larvae of Bombyx mori L. were put into the vessel and fed at a constant temperature of 25° C. Each concentration was repeated 3 times, and an aqueous solution containing 0.05% of Tween-80 was used as a control group. After being treated for 24 hours, a number of dead Bombyx mori L. was counted, and a mortality (%) was calculated according to a formula that mortality (%)=(number of live larvae in the control group −number of treated live larvae)/number of live larvae in the control group * 100%.

[4] = tested on: Solenopsis invicta; assay: whole plant or invertebrate; settings: water test tube poison-feeding; for mortality at 100 ppm: Solenopsis invicta
How it was run: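 Mortality (%) of Solenopsis invicta, computed against live counts in control tubes, was recorded 24 h and 72 h after treatment at 25 °C. Compound was offered by oral feeding in test tubes at 100 ppm, diluted from a 10 g/L DMSO stock into water with 5% honey and 0.05% Tween-80.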

[5] = tested on: Apis cernan; assay: Toxicity test on adult worker bees of Apis cernan, small beaker method; settings: 500 ppm, 48 hours
Description: (2) Toxicity Test on Adult Worker Bees of Apis cernan.
Adult worker bees of Apis cernan having the same size were selected for test. The worker bees were collected from beekeeping boxes in the daystart of the test day and tested by using a small beaker method.
Operation process: A small amount of absorbent cotton was put into a 5 mL small beaker, 5 mL of a test liquid medicine (a concentration of 500 ppm) was dropped into the absorbent cotton, and stirred gently to make the absorbent cotton completely wet but not leached obviously, then the small beaker was put into a 500 mL large beaker, then 15 worker bees were put into the large beaker, and finally the large beaker was sealed with gauze. After treatment, the large beaker was placed in a dark room of an artificial climate box. After taking the medicine for 48 hours, a number of live and dead worker bees were investigated.

[6] = tested on: Spodoptera exigua; assay: whole plant or invertebrate; settings: for mortality at 500 ppm: Spodoptera exigua, read-out: Spodoptera exigua Mortality (%) 500 ppm
How it was run: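 Leaf immersion feeding: second-instar larvae (about 35 per vessel, triplicate) kept at 28° C on discs treated with 500 ppm test solution in 0.05% Tween-80. Mortality at 24 h, calculated relative to surviving larvae in the solvent control.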

[7] = 24 h, read-out: Solenopsis invicta Mortality (%) 100 ppm 24 h, 100 ppm, 24 h
[8] = 72 h, read-out: Solenopsis invicta Mortality (%) 100 ppm 72 h, 100 ppm, 72 h
[9] = 500 ppm, 2nd-instar larvae, leaf immersion feeding
[10] = 500 ppm, wingless adults, impregnation method, 24 hours
[11] = 100 ppm, 24 h, read-out: Solenopsis invicta Mortality (%) 100 ppm 24 h
[12] = 100 ppm, 72 h, read-out: Solenopsis invicta Mortality (%) 100 ppm 72 h
[13] = 500 ppm, 2nd-instar larvae, leaf immersion feeding, 24 hours

| Structure (SMILES) | Plutella xylostella Mortality (%) [1, 9] [%] | Aphis craccivora Mortality (%) ([2]; 500 ppm, wingless adults) | Solenopsis invicta Mortality (%) 24 h ([4]; 100 ppm, 24 h) [%] | Solenopsis invicta Mortality (%) 72 h ([4]; 100 ppm, 72 h) [%] | Spodoptera exigua Mortality (%) [6, 9] [%] | other results |
| --- | --- | --- | --- | --- | --- | --- |
| COc1ccc(-c2cn3c(c2C(C)=O)NC(C(N)=O)(C(N)=O)c2ccc([N+](=O)[O-])cc2-3)cc1 [Compound B4] |  |  |  |  |  | mortality at 500 ppm [1]: 86%; mortality at 500 ppm ([2]; 24 h): 100%; Toxicity determination Bombyx mori L. Mortality (%) [3]: 0%; mortality at 100 ppm [4, 7]: 20%; mortality at 100 ppm [4, 8]: 88%; Toxicity determination Apis cernan Mortality (%) [5]: 0%; mortality at 500 ppm ([6]; 24 h): 100% |
| CSc1nn2c(c1C(=O)N1CCN(C)CC1)NC(F)(C(F)(F)F)c1ccccc1-2 (stereo not shown) [Compound A30] |  |  |  |  |  | mortality at 500 ppm [1]: 100%; mortality at 500 ppm ([2]; 24 h): 100%; Toxicity determination Bombyx mori L. Mortality (%) [3]: 8%; mortality at 100 ppm [4, 7]: 40%; mortality at 100 ppm [4, 8]: 100%; Toxicity determination Apis cernan Mortality (%) [5]: 8%; mortality at 500 ppm ([6]; 24 h): 100% |
| C=CC1(CC(F)(F)F)Nc2c(Br)c(C#N)nn2-c2c(Cl)cc(C(F)(F)F)cc21 (stereo not shown) [Compound C6] |  |  |  |  |  | mortality at 500 ppm [1]: 100%; mortality at 500 ppm ([2]; 24 h): 100%; mortality at 100 ppm [4, 7]: 44%; mortality at 100 ppm [4, 8]: 100%; mortality at 500 ppm ([6]; 24 h): 100% |
| CC[S+]([O-])c1c(C#N)nn2c1NC(/C=C/C(=O)OC)(CC#N)c1cc(C(F)(F)F)cc(Cl)c1-2 (stereo not shown) [Compound C59] |  |  |  |  |  | mortality at 500 ppm [1]: 100%; mortality at 500 ppm ([2]; 24 h): 100%; mortality at 100 ppm [4, 7]: 29%; mortality at 100 ppm [4, 8]: 100%; mortality at 500 ppm ([6]; 24 h): 90% |
| CSc1nn2c(c1C#N)N(C(=O)Oc1ccccc1)C(F)(C(F)(F)F)c1ccccc1-2 (stereo not shown) [Compound A31] |  |  |  |  |  | mortality at 500 ppm [1, 9]: 100%; mortality at 500 ppm [2, 10]: 100%; mortality at 100 ppm [4, 11]: 20%; mortality at 100 ppm [4, 12]: 100%; mortality at 500 ppm [6, 13]: 100% |
| N#Cc1nn2c(c1[S+]([O-])C(F)(F)F)NC(Cl)(Cl)c1cc(C(F)(F)F)cnc1-2 (stereo not drawn) [a-44, 5,5-dichloro-7-trifluoromethyl-3-trifluoromethylsulfinyl-4,5-dihydropyrazole[1,5-α]quinazoline[3,2-e]pyridine-2-cyano] |  |  |  |  |  | Plutella xylostella Mortality (%) 500 ppm [1, 9]: 100%; Aphis craccivora Mortality (%) 500 ppm [2, 10]: 100%; Solenopsis invicta Mortality (%) 100 ppm 24 h ([4]; 100 ppm, 24 h): 15%; Solenopsis invicta Mortality (%) 100 ppm 72 h ([4]; 100 ppm, 72 h): 95%; Spodoptera exigua Mortality (%) 500 ppm [6, 13]: 95% |
| COC(=O)C(C)C1Nc2c(OC(F)(F)F)c(C#N)nn2-c2c(Cl)cc(C(F)(F)F)cc21 (stereo not drawn) [d-122] | 91 | 90 | 24 | 95 | 84 |  |
| CCOC(=O)CC1(C(=O)OCC)Nc2c([S+]([O-])C(F)(F)F)c(C#N)nn2-c2c(C(F)(F)F)ccc(Cl)c21 (stereo not shown) [e-5] | 100 | 100 | 34 | 100 | 100 |  |
| COC(=O)C1(CC#N)Nc2c([S+]([O-])C(F)(F)F)c(C#N)nn2-c2cncc(Cl)c21 (stereo not shown) [b-2] | 100 | 100 | 19 | 93 | 95 |  |
| COC(=O)C1(CC(N)=O)Nc2c([S+]([O-])C(F)(F)F)c(C#N)nn2-c2c(Cl)cc(C(F)(F)F)cc21 (stereo not drawn) [d-20] | 100 | 100 | 14 | 100 | 100 |  |
| N#Cc1nn2c(c1OC(F)(F)F)NC(CC(=O)C(F)(F)F)c1c(Cl)cncc1-2 (stereo not shown) [b-116] | 100 | 100 | 20 | 100 | 98 |  |
| O=C(C1Nc2c([S+]([O-])C(F)(F)F)c(C(F)(F)F)nn2-c2cncc(Cl)c21)C(F)(F)F (stereo not shown) [b-94] | 100 | 100 | 20 | 100 | 90 |  |
| COC(=O)CC1(C(=O)C(F)(F)F)Nc2c([S+]([O-])C(F)(F)F)c(C#N)nn2-c2c(Cl)cc(C(F)(F)F)cc21 (stereo not drawn) [d-54] | 100 | 100 | 21 | 99 | 99 |  |
| COC(=O)CC1(C(=O)OC)Nc2c(C#N)c(C(F)(F)F)nn2-c2cc(C(F)(F)F)cc(Cl)c21 (stereo not shown) [c-4] | 97 | 100 | 29 | 93 | 100 |  |
| COC(=O)CC1Nc2c([S+]([O-])C(F)(F)F)c(C#N)nn2-c2ncc(C(F)(F)F)cc21 (stereo not shown) [a-65] |  |  |  |  |  | Plutella xylostella Mortality (%) 500 ppm [1, 9]: 100%; Aphis craccivora Mortality (%) 500 ppm [2, 10]: 100%; Solenopsis invicta Mortality (%) 100 ppm 24 h ([4]; 100 ppm, 24 h): 26%; Solenopsis invicta Mortality (%) 100 ppm 72 h ([4]; 100 ppm, 72 h): 100%; Spodoptera exigua Mortality (%) 500 ppm [6, 13]: 100% |
| N#CCC1Nc2c([S+]([O-])C(F)(F)F)c(C#N)nn2-c2cncc(Cl)c21 (stereo not shown) [b-73] | 89 | 100 | 20 | 90 | 85 |  |
| CCCCOC(=O)CC1(C(=O)OCCCC)Nc2c([S+]([O-])C(F)(F)F)c(C#N)nn2-c2c(Cl)cc(C(F)(F)F)cc21 (stereo not drawn) [d-72] | 90 | 99 | 26 | 76 | 85 |  |
| CC1(C)Nc2c(NC(=O)Oc3ccccc3)c(C#N)nn2-c2ccccc21 [Compound A18] |  |  |  |  |  | mortality at 500 ppm [1, 9]: 100%; mortality at 500 ppm [2, 10]: 100%; mortality at 100 ppm [4, 11]: 44%; mortality at 100 ppm [4, 12]: 100%; mortality at 500 ppm [6, 13]: 100% |
